Values of other authors as cited in patent US20030190360A1, “Chronotherapeutic dosage forms containing glucocorticosteroid and methods of treatment” (priority 2001, published 2003).

Conditions: equivalent doses of glucocorticoids

Row | Compound | Approximate Equivalent Dose [mg]
1 | C[C@]12CCC(=O)C=C1CC[C@@H]1[C@@H]2C(=O)C[C@@]2(C)[C@H]1CC[C@]2(O)C(=O)CO [Cortisone] | 25
2 | C[C@]12CCC(=O)C=C1CC[C@@H]1[C@@H]2[C@@H](O)C[C@@]2(C)[C@H]1CC[C@]2(O)C(=O)CO [Hydrocortisone] | 20
3 | C[C@]12C=CC(=O)C=C1CC[C@@H]1[C@@H]2[C@@H](O)C[C@@]2(C)[C@H]1CC[C@]2(O)C(=O)CO [Prednisolone] | 5
4 | C[C@]12C=CC(=O)C=C1CC[C@H]1[C@@H]3C[C@@H](O)[C@](O)(C(=O)CO)[C@@]3(C)C[C@H](O)[C@@]12F [Triamcinolone] | 4
